{
  "source": "patent US20200157145A1",
  "about": "“NEUTRAL-CATIONIC PEPTOIDS AND USES THEREOF” (Stealth BioTherapeutics Corp, priority 2018, published 2020)",
  "test_system": "isolated guinea pig heart exposed to global ischemia",
  "experiment": "Cardiac ischemia-reperfusion injury in isolated perfused guinea pig heart (global no-flow ischemia 20 min, reperfusion 120 min)",
  "procedure": "Procedures for the use of guinea pigs are in accordance with the guidelines established by the American Physiological Society. Adult male guinea pigs (200-300 g) will be anesthetized with a ketamine/xylazine cocktail (85/15 mg mL, respectively; ip delivery). Upon the absence of reflexes to ensure a deep plane of anesthesia, hearts will be excised via midline thoracotomy and immersed in ice-cold saline. Hearts will be cannulated by the aorta and perfused with a modified Krebs-Henseleit buffer containing (in mM): 118 NaCl, 24 NaHCO3, 4.75 KCl, 1.2 KH2PO4, 1.2 MgSO4, 2.0 CaCl2, and 10 glucose (gassed with 95/5% O2/CO2). Hearts will be placed in a buffer-filled perfusion chamber and maintained at 37° C. for the duration of the experiments.\nFollowing the initiation of perfusion, hearts will be instrumented for the simultaneous observation of mechanical and electrical function. A buffer-filled latex balloon will be inserted into the left ventricle (via the mitral valve) for the measurement of left ventricular developed pressure, with balloon volume adjusted to establish an end-diastolic pressure of 5-8 mmHg. Three electrodes will be placed into the buffer-filled perfusion chamber for the measurement of volume-conducted ECG. A pre-established protocol of electrode placement will be utilized to obtain a signal analogous to Lead II of a typical 12-lead ECG. All physiological parameters will be continuously monitored and stored on a personal computer using commercially available software (Chart, AD Instruments).\nAfter a 10-minute equilibration period, hearts will be divided into the following different treatment groups: 1. Control followed by I/R; 2. Administration of 1 nM ηArg-η2′6′-Dmt-ηLys-ηPhe-NH2 in the perfusate both before and after index ischemia; 3. Post-ischemic administration of 1 nM ηArg-η2′6′-Dmt-ηLys-ηPhe-NH2 using both a bolus dose (also 1 nM, administered immediately prior to reperfusion) and ηArg-η2′6′-Dmt-ηLys-ηPhe-NH2 in the reperfusion solution; 4. Positive control using ischemic preconditioning; 3 cycles of 5 min I/R before index ischemia).\nHearts will be exposed to global no-flow ischemia by stopping perfusion for 20 minutes. At the end of the index ischemia, static buffer from the perfusion lines will be washed out (via an accessory port proximal to the aortic cannula) and reperfusion ensued for 120 minutes. Administration of all compounds in the perfusate will be accomplished via dissolving the compound(s) in solution prior to administration. The reperfusion bolus dose will be delivered to the heart via syringe through a drug-delivery port just above the aortic cannula. At the end of the 2 h reperfusion protocol, the LV will be dissected, sliced into 5 mm-thick slices, incubated in triphenyltetrazolium chloride (TTC) for 10 minutes (37° C.), and digitally photographed for subsequent infarct size analysis. Infarct sizes are expressed as the infarcted area as a percentage of the LV (in the global ischemia model, the entire LV constitutes the zone-at-risk).",
  "key": {"[1]": {"conditions": "peptoid 0.01 nM, 0.1 nM, cyclosporin-A 0.2 μM"}},
  "data": [
    {"substance": "ηArg-η2′6′-Dmt-ηLys-ηPhe-NH2", "values": [
      {"measurement": "Incidence of VT/VF (ventricular tachycardia and/or fibrillation)", "setting": "0.01 nM/0.1 nM(30 min R)", "value": "protection against the incidence of VT/VF"},
      {"measurement": "Infarct size (infarcted area as a percentage of the LV)", "setting": "1 nM or 0.1 nM or 0.001 nM or 0.01 nM/0.1 nM(30 min R), 20 min global ischemia, compared to control group", "value": "lower incidence of infarction (infarction size)"},
      {"measurement": "Baseline coronary flow rates", "setting": "groups receiving 0.01 nM", "value": "slightly lower than other groups"},
      {"measurement": "Baseline heart rate", "setting": "[1]", "value": "no discernable effects"},
      {"measurement": "Baseline left ventricular developed pressure", "setting": "[1]", "value": "no discernable effects"},
      {"measurement": "Baseline rates of contraction/relaxation", "setting": "[1]", "value": "no discernable effects"},
      {"measurement": "Coronary flow rates", "setting": "peptoid 1 nM, 0.1 nM, 0.01 nM to 0.1 nM, cyclosporin-A 0.2 uM, whole time or at reperfusion, vs control", "value": "no differences in coronary flow rates"}
    ]}
  ]
}
